Usually Kd stands for the equilibrium constant for the complex coming apart.

The source of these data is publication PMC13065029 (PLOS One, 2026).

Read-outs that look alike come from different tables or passages of the source.

Test [1] has as its target T1, CHIKV nsP2^pro (Chikungunya virus, UniProt Q8JUX6). The note with it: FRET; ref [18]; read-out: IC₅₀; cited from earlier work.
Test [2] addresses T1, CHIKV nsP2^pro. The note with it: ref [18]; cited from earlier work.
Test [3] concerns the target T1, CHIKV nsP2^pro. Conditions: fluorometry; ref [18]; cited from earlier work.
For test [4], the target named is T1, CHIKV nsP2^pro. The note with it: MST; ref [67]; cited from earlier work.
Test [5] concerns Human alphaherpesvirus 1 (HSV-1). Conditions: cited from earlier work.
The test system of test [6] is Yellow Fever virus. Conditions: cited from earlier work.
Test [7] deals with Dengue virus. Conditions: cited from earlier work.
Test [8] has as its target T2, Chikungunya virus (CHIKV) nsP2 protease (Chikungunya virus).
T2 chain: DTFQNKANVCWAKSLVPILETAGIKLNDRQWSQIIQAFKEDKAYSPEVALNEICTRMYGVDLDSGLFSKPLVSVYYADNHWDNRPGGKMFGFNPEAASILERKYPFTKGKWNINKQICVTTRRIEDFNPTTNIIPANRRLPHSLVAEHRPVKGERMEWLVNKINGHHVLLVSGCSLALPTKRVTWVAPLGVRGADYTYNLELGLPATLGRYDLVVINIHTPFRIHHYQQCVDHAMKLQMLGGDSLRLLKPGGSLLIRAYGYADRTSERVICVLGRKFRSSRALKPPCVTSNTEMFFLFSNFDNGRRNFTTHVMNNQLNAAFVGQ
The test can be described thus: BLI. Conditions: both partners purified.

As to `COc1ccc([C@@H]2CC(=O)c3c(O)cc(O)cc3O2)cc1O` [Hesperetin (HST), Hesperetin], in test [1], the IC50 is 2.5 ± 0.4 µM. In addition, the “Inhibition Mode” value in test [2] is given as “Noncompetitive”. For the same molecule, the Kd in test [3] is 31.6 ± 2.5 µM.

Turning to `COc1ccc([C@@H]2CC(=O)c3c(O)cc(O[C@@H]4O[C@H](CO[C@@H]5O[C@@H](C)[C@H](O)[C@@H](O)[C@H]5O)[C@@H](O)[C@H](O)[C@H]4O)cc3O2)cc1O` [Hesperidin (HSD), Hesperidin], the IC50 in test [1] was 7.1 ± 1.1 µM. The “Inhibition Mode” value in test [2] is recorded as “Noncompetitive”. Also, the Kd in test [3] is 40.7 ± 2 µM.

With `CC1=C(CO)C(=O)O[C@@H]([C@@H](C)[C@H]2CC[C@H]3[C@@H]4C[C@H]5O[C@]56[C@@H](O)C=CC(=O)[C@]6(C)[C@H]4CC[C@]23C)C1` [Withaferin A (WFA), Withaferin A], in test [4], the Kd was 64 µM.

For Mastoparan, the antiviral activity entry in test [5] was “antiviral activity”.

Consider Phospholipase A2, for which the antiviral activity entry in test [6] and in test [7] was “antiviral activity” in each case.

In turn, GILGKLWEGFKSIV (Stock of 10 mM in DMSO) [pantinin-1] registered a Kd in test [8] of 9.29 µM.
